Source: ChEMBL document CHEMBL1201862, “PubChem BioAssay data set” (2004)
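How tested: cells in 96-well plates exposed to compound for 48 hours at five concentrations. Abbreviation: GI50, concentration required for 50% inhibition of growth.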 Active and inactive are the calls of the source. Rule as the data show it: active = GI50 up to about 1.1 µM and inactive = higher.

How the values were obtained:
Experiment in all cases: growth of human tumour cells (NCI), 48 h
LOX IMVI = system: LOX IMVI
Malme-3M = system: Malme-3M
EKVX = system: EKVX
A498 = system: A498
SR = system: SR
UO-31 = system: UO-31
DMS-273 = system: DMS-273
SN12C = system: SN12C
NCI-H522 = system: NCI-H522
SNB-75 = system: SNB-75
CCRF-CEM = system: CCRF-CEM
786-0 = system: 786-0
HCT-15 = system: HCT-15
OVCAR-4 = system: OVCAR-4
U-251 = system: U-251
SW-620 = system: SW-620
M19-MEL = system: M19-MEL
HOP-92 = system: HOP-92
HCT-116 = system: HCT-116
SF-268 = system: SF-268
SNB-19 = system: SNB-19
LXFL 529 = system: LXFL 529
KM-20L2 = system: KM-20L2
NCI-H23 = system: NCI-H23
SNB-78 = system: SNB-78
DLD-1 = system: DLD-1
RPMI-8226 = system: RPMI-8226
HOP-18 = system: HOP-18
UACC-62 = system: UACC-62
TK-10 = system: TK-10
HOP-62 = system: HOP-62
HT-29 = system: HT-29
NCI-H460 = system: NCI-H460
SK-MEL-28 = system: SK-MEL-28
KM12 = system: KM12
RXF 393 = system: RXF 393
UACC-257 = system: UACC-257
HL-60 = system: HL-60
M14 = system: M14
MOLT-4 = system: MOLT-4
OVCAR-5 = system: OVCAR-5
HCC 2998 = system: HCC 2998
OVCAR-8 = system: OVCAR-8
A549 = system: A549
SF-539 = system: SF-539
XF498 = system: XF498
OVCAR-3 = system: OVCAR-3
COLO 205 = system: COLO 205
DMS-114 = system: DMS-114
SK-MEL-5 = system: SK-MEL-5
ACHN = system: ACHN
K562 = system: K562
IGROV-1 = system: IGROV-1
CAKI-1 = system: CAKI-1
SK-MEL-2 = system: SK-MEL-2
NCI-H226 = system: NCI-H226
SK-OV-3 = system: SK-OV-3

O=Cc1ccccc1OCCOc1cc(OCCOc2ccccc2C=O)c(OCCOc2ccccc2C=O)cc1OCCOc1ccccc1C=O
GI50 (LOX IMVI): 36.5 µM (inactive)
GI50 (Malme-3M): > 100 µM (inactive)
GI50 (EKVX): 32.1 µM (inactive)
GI50 (A498): > 100 µM (inactive)
GI50 (SR): 39.8 µM (inactive)
GI50 (UO-31): > 52.8 µM (inactive)
GI50 (DMS-273): 52.2 µM (inactive)
GI50 (SN12C): > 100 µM (inactive)
GI50 (NCI-H522): > 86.9 µM (inactive)
GI50 (SNB-75): 8.07 µM (inactive)
GI50 (CCRF-CEM): > 37.1 µM (inactive)
GI50 (786-0): 24.2 µM (inactive)
GI50 (HCT-15): > 66.2 µM
GI50 (OVCAR-4): 39.9 µM (inactive)
GI50 (U-251): 12.6 µM (inactive)
GI50 (SW-620): 46.5 µM (inactive)
GI50 (M19-MEL): > 100 µM (inactive)
GI50 (HOP-92): 26.2 µM (inactive)
GI50 (HCT-116): 21.9 µM (inactive)
GI50 (SF-268): 52.1 µM (inactive)
GI50 (SNB-19): > 31.6 µM (inactive)
GI50 (LXFL 529): 33.7 µM (inactive)
GI50 (KM-20L2): > 100 µM (inactive)
GI50 (NCI-H23): 56.5 µM (inactive)
GI50 (SNB-78): 45.1 µM (inactive)
GI50 (DLD-1): 40.7 µM (inactive)
GI50 (RPMI-8226): 90.6 µM (inactive)
GI50 (HOP-18): > 49.4 µM (inactive)
GI50 (UACC-62): > 100 µM (inactive)
GI50 (TK-10): 42.6 µM (inactive)
GI50 (HOP-62): 70.3 µM (inactive)
GI50 (HT-29): > 100 µM (inactive)
GI50 (NCI-H460): > 67.9 µM (inactive)
GI50 (SK-MEL-28): > 100 µM (inactive)
GI50 (KM12): > 100 µM (inactive)
GI50 (RXF 393): 29.6 µM (inactive)
GI50 (UACC-257): > 100 µM (inactive)
GI50 (HL-60): > 78.2 µM (inactive)
GI50 (M14): > 83.9 µM (inactive)
GI50 (MOLT-4): > 45.1 µM (inactive)
GI50 (OVCAR-5): > 100 µM (inactive)
GI50 (HCC 2998): > 100 µM (inactive)
GI50 (OVCAR-8): 47.1 µM (inactive)
GI50 (A549): > 100 µM (inactive)
GI50 (SF-539): > 44.5 µM (inactive)
GI50 (XF498): > 39.1 µM (inactive)
GI50 (OVCAR-3): > 100 µM (inactive)
GI50 (COLO 205): > 100 µM (inactive)
GI50 (DMS-114): 47.3 µM (inactive)
GI50 (SK-MEL-5): > 100 µM (inactive)
GI50 (ACHN): 47.3 µM (inactive)
GI50 (K562): 50.4 µM (inactive)
GI50 (IGROV-1): > 62.8 µM (inactive)
GI50 (CAKI-1): > 70.6 µM (inactive)
GI50 (SK-MEL-2): 44.9 µM (inactive)
GI50 (NCI-H226): > 54.8 µM (inactive)
GI50 (SK-OV-3): > 82.4 µM (inactive)
